Assay results published in PubChem BioAssay (NCI).
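48-hour exposure; five concentrations; linearly interpolated endpoints. GI50 marks 50% less growth. Definition used: TGI = concentration required for complete inhibition of growth.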

Columns and labels:
Assay in all cases: DTP human tumour cell line panel, 48 h
SR leukemia = test system: SR leukemia
NCI-H226 lung = test system: NCI-H226 lung
SN12C renal = test system: SN12C renal
RXF 393 renal = test system: RXF 393 renal
DU-145 prostate = test system: DU-145 prostate
HOP-92 NSCLC = test system: HOP-92 NSCLC
SNB-19 CNS = test system: SNB-19 CNS
SF-295 CNS = test system: SF-295 CNS
OVCAR-3 ovarian = test system: OVCAR-3 ovarian
786-0 renal = test system: 786-0 renal
TK-10 renal = test system: TK-10 renal
UACC-62 melanoma = test system: UACC-62 melanoma
IGROV1 ovarian = test system: IGROV1 ovarian
SK-MEL-2 melanoma = test system: SK-MEL-2 melanoma
RPMI-8226 leukemia = test system: RPMI-8226 leukemia
COLO 205 colon = test system: COLO 205 colon
EKVX NSCLC = test system: EKVX NSCLC
OVCAR-4 ovarian = test system: OVCAR-4 ovarian
CAKI-1 renal = test system: CAKI-1 renal
UACC-257 melanoma = test system: UACC-257 melanoma
HT29 colon = test system: HT29 colon
HOP-62 NSCLC = test system: HOP-62 NSCLC
BT-549 breast = test system: BT-549 breast
A498 renal = test system: A498 renal
SNB-75 CNS = test system: SNB-75 CNS
NCI/ADR-RES ovarian = test system: NCI/ADR-RES ovarian
MOLT-4 leukemia = test system: MOLT-4 leukemia
SF-539 CNS = test system: SF-539 CNS
CCRF-CEM leukemia = test system: CCRF-CEM leukemia
M14 melanoma = test system: M14 melanoma
HCT-116 colon = test system: HCT-116 colon
MDA-MB-435 = test system: MDA-MB-435
HCT-15 colon = test system: HCT-15 colon
OVCAR-8 ovarian = test system: OVCAR-8 ovarian
HCC-2998 colon = test system: HCC-2998 colon
MDA-MB-231 breast = test system: MDA-MB-231 breast
A549 NSCLC = test system: A549 NSCLC
SF-268 CNS = test system: SF-268 CNS
NCI-H460 lung = test system: NCI-H460 lung
OVCAR-5 ovarian = test system: OVCAR-5 ovarian
T-47D breast = test system: T-47D breast
HS 578T breast = test system: HS 578T breast
SW-620 colon = test system: SW-620 colon
UO-31 renal = test system: UO-31 renal
NCI-H522 lung = test system: NCI-H522 lung
LOX IMVI melanoma = test system: LOX IMVI melanoma
U251 CNS = test system: U251 CNS
KM12 colon = test system: KM12 colon
SK-MEL-28 melanoma = test system: SK-MEL-28 melanoma
MALME-3M melanoma = test system: MALME-3M melanoma
HL-60(TB) leukemia = test system: HL-60(TB) leukemia
MCF7 breast = test system: MCF7 breast
SK-OV-3 ovarian = test system: SK-OV-3 ovarian
NCI-H23 lung = test system: NCI-H23 lung
PC-3 prostate = test system: PC-3 prostate
K-562 leukemia = test system: K-562 leukemia
SK-MEL-5 melanoma = test system: SK-MEL-5 melanoma
ACHN renal = test system: ACHN renal

O=Cc1ccc(O)c2ncccc12
GI50 (SR leukemia): 858 nM | TGI (SR leukemia): > 31.8 µM | GI50 (NCI-H226 lung): 4.88 µM | TGI (NCI-H226 lung): > 79.1 µM | GI50 (SN12C renal): 3.81 µM | TGI (SN12C renal): > 100 µM | GI50 (RXF 393 renal): 10.4 µM | TGI (RXF 393 renal): 33.8 µM | GI50 (DU-145 prostate): 7.28 µM | TGI (DU-145 prostate): 32.1 µM | GI50 (HOP-92 NSCLC): 5.01 µM | TGI (HOP-92 NSCLC): > 73.5 µM | GI50 (SNB-19 CNS): 6.03 µM | TGI (SNB-19 CNS): > 100 µM | GI50 (SF-295 CNS): 2120 nM | TGI (SF-295 CNS): 13.1 µM | GI50 (OVCAR-3 ovarian): 1400 nM | TGI (OVCAR-3 ovarian): 6.85 µM | GI50 (786-0 renal): 13.4 µM | TGI (786-0 renal): 73.2 µM | GI50 (TK-10 renal): 17.4 µM | TGI (TK-10 renal): 52.5 µM | GI50 (UACC-62 melanoma): 3.58 µM | TGI (UACC-62 melanoma): 27.6 µM | GI50 (IGROV1 ovarian): 3.32 µM | TGI (IGROV1 ovarian): 16.8 µM | GI50 (SK-MEL-2 melanoma): 25.8 µM | TGI (SK-MEL-2 melanoma): > 96 µM | GI50 (RPMI-8226 leukemia): 2200 nM | TGI (RPMI-8226 leukemia): 15.8 µM | GI50 (COLO 205 colon): 3.71 µM | TGI (COLO 205 colon): 17.5 µM | GI50 (EKVX NSCLC): 3.01 µM | TGI (EKVX NSCLC): 23.9 µM | GI50 (OVCAR-4 ovarian): 2910 nM | TGI (OVCAR-4 ovarian): > 100 µM | GI50 (CAKI-1 renal): 7.29 µM | TGI (CAKI-1 renal): 35.4 µM | GI50 (UACC-257 melanoma): 3.45 µM | TGI (UACC-257 melanoma): > 53.1 µM | GI50 (HT29 colon): 7.46 µM | TGI (HT29 colon): 34.7 µM | GI50 (HOP-62 NSCLC): 5.59 µM | TGI (HOP-62 NSCLC): 45.3 µM | GI50 (BT-549 breast): 3.59 µM | TGI (BT-549 breast): > 71.8 µM | GI50 (A498 renal): 25.4 µM | TGI (A498 renal): > 63.9 µM | GI50 (SNB-75 CNS): 16.9 µM | TGI (SNB-75 CNS): > 82.4 µM | GI50 (NCI/ADR-RES ovarian): 2200 nM | TGI (NCI/ADR-RES ovarian): > 29.4 µM | TGI (MOLT-4 leukemia): > 38.8 µM | GI50 (SF-539 CNS): 3.33 µM | TGI (SF-539 CNS): 19.3 µM | GI50 (CCRF-CEM leukemia): 952 nM | TGI (CCRF-CEM leukemia): > 32 µM | GI50 (M14 melanoma): 2990 nM | TGI (M14 melanoma): 26.1 µM | GI50 (HCT-116 colon): 2540 nM | TGI (HCT-116 colon): 11.7 µM | GI50 (MDA-MB-435): 3.83 µM | TGI (MDA-MB-435): 27.8 µM | GI50 (HCT-15 colon): 1290 nM | TGI (HCT-15 colon): 18.3 µM | GI50 (OVCAR-8 ovarian): 3.28 µM | TGI (OVCAR-8 ovarian): > 100 µM | GI50 (HCC-2998 colon): 11.8 µM | TGI (HCC-2998 colon): 41.8 µM | GI50 (MDA-MB-231 breast): 4.21 µM | TGI (MDA-MB-231 breast): > 100 µM | GI50 (A549 NSCLC): 28.1 µM | TGI (A549 NSCLC): > 100 µM | GI50 (SF-268 CNS): 2650 nM | TGI (SF-268 CNS): > 100 µM | GI50 (NCI-H460 lung): 3.47 µM | TGI (NCI-H460 lung): 17.2 µM | GI50 (OVCAR-5 ovarian): 4.65 µM | TGI (OVCAR-5 ovarian): 65.5 µM | GI50 (T-47D breast): 2560 nM | TGI (T-47D breast): > 76 µM | GI50 (HS 578T breast): 7.05 µM | TGI (HS 578T breast): > 53.7 µM | GI50 (SW-620 colon): 3.91 µM | TGI (SW-620 colon): 16.6 µM | GI50 (UO-31 renal): 4.96 µM | TGI (UO-31 renal): 36.9 µM | GI50 (NCI-H522 lung): 25.5 µM | TGI (NCI-H522 lung): 90.8 µM | GI50 (LOX IMVI melanoma): 2310 nM | TGI (LOX IMVI melanoma): > 54.5 µM | GI50 (U251 CNS): 2400 nM | TGI (U251 CNS): 23.3 µM | GI50 (KM12 colon): 5.65 µM | TGI (KM12 colon): 40.5 µM | GI50 (SK-MEL-28 melanoma): 7.14 µM | TGI (SK-MEL-28 melanoma): > 53.3 µM | GI50 (MALME-3M melanoma): 3.62 µM | TGI (MALME-3M melanoma): 30.4 µM | TGI (HL-60(TB) leukemia): > 100 µM | GI50 (MCF7 breast): 2450 nM | TGI (MCF7 breast): 8.11 µM | GI50 (SK-OV-3 ovarian): 10.8 µM | TGI (SK-OV-3 ovarian): 39.3 µM | GI50 (NCI-H23 lung): 3.42 µM | TGI (NCI-H23 lung): > 55.8 µM | GI50 (PC-3 prostate): 4.01 µM | TGI (PC-3 prostate): > 46.6 µM | GI50 (K-562 leukemia): 3.29 µM | TGI (K-562 leukemia): > 100 µM | GI50 (SK-MEL-5 melanoma): 2400 nM | TGI (SK-MEL-5 melanoma): 9.45 µM | GI50 (ACHN renal): 12.9 µM | TGI (ACHN renal): > 100 µM
